Results taken from ChEMBL document CHEMBL1201862, “PubChem BioAssay data set” (2004).
Values belong to the molecule of their own block, whether it stands above or below them. Activity calls are given as the source filed them.

Tests used:
SUMO E1/E2 = SUMO E1/E2 (Homo sapiens, UniProt P63279+Q9UBE0+Q9UBT2); assay: SAR analysis of SUMOylation using HTRF in an in-Vitro dose response assay. [Related pubchem assays (depositor defined):AID2006, AID2011, AID2018, AID2069, AID2658]; format: functional
[1] = target: T1, Voltage-gated N-type calcium channel alpha-1B subunit/Amyloid beta A4 precursor protein-binding family A member 1 (Homo sapiens, UniProt Q00975+Q02410); assay: disruptors of Mint-PDZ/N-type channel peptide interaction – biochemical, HTRF, set 2, SAR follow-up (AID 434980); format: functional
[2] = target: T1, Voltage-gated N-type calcium channel alpha-1B subunit/Amyloid beta A4 precursor protein-binding family A member 1; assay: disruptors of Mint-PDZ/N-type channel peptide interaction – biochemical, HTRF, SAR follow-up (AID 2489); format: functional
Troponin, cardiac muscle = Troponin, cardiac muscle (Homo sapiens, UniProt P19429+P45379+P63316); assay: Fluorescence-based biochemical high throughput dose response assay for activators of the calcium sensitivity of cardiac Regulated Thin Filaments (RTF). [Related pubchem assays (depositor defined):AID493008, AID493018, AID504382, AID504383]; format: protein-complex assay
[3] = target: T2, Delta-type opioid receptor (Homo sapiens, UniProt P41143); assay: HTS Image-Based Screen for Antagonists of the DOR Receptor. [Related pubchem assays (depositor defined):AID1777, AID1785, AID1786, AID2133]; format: functional
Mu-type opioid receptor [4] = target: T3, Mu-type opioid receptor (Homo sapiens, UniProt P35372); assay: HTS Image-Based Screen for Agonists of the MOR Receptor. [Related pubchem assays (depositor defined):AID1777, AID1785, AID1786, AID2133]; format: functional
[5] = target: Neuropeptide Y receptor type 1 (Homo sapiens, UniProt P25929); format: functional;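 also: HEK293 cells with a CNG channel challenged with NPY then isoproterenol; potency as antagonist that reverses NPY suppression of cAMP signal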
[6] = target: T2, Delta-type opioid receptor; assay: HTS Image-Based Screen for Agonists of the DOR Receptor. [Related pubchem assays (depositor defined):AID1777, AID1786, AID2133]; format: functional
[7] = target: Neuropeptide Y receptor type 2 (Homo sapiens, UniProt P49146); format: functional, cell-based;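 also: HEK293 cells expressing the receptor and a CNG channel; stimulus was NPY near EC95 followed by isoproterenol to raise cAMP; antagonist potency measured as restoring cAMP signal that NPY suppresses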
[8] = target: T4, Kappa-type opioid receptor (Homo sapiens, UniProt P41145); format: functional
[9] = target: T4, Kappa-type opioid receptor; format: functional; remark: listed apart in the source
[10] = target: T4, Kappa-type opioid receptor; assay: SAR analysis of small molecule agonists of the kappa opioid receptor via a luminescent beta-arrestin assay. [Related pubchem assays (depositor defined):AID1777, AID1786, AID1966, AID2133, AID2136, AID2348, AID2352, AID2357, AID2359, AID2370, AID2420, AID2478, AID2491, AID2492, AID2493, AID2497, AID2498, AID2500, AID449737, AID488822, AID488842]; format: functional
Mu-type opioid receptor [11] = target: T3, Mu-type opioid receptor; assay: MOR agonists by imaging, SAR follow-up, image-based (AID 2352); format: functional
[12] = target: T2, Delta-type opioid receptor; assay: DOR agonists, SAR follow-up, image-based (AID 2370); format: functional
[13] = target: T4, Kappa-type opioid receptor; assay: KOR antagonists by imaging, SAR follow-up, image-based (AID 2348); format: functional
Mu-type opioid receptor [14] = target: T3, Mu-type opioid receptor; assay: MOR antagonists, SAR follow-up, image-based (AID 2420); format: functional;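 also: compounds added before stimulation of receptor with agonist DAMGO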
[15] = target: T5, Heat shock factor protein 1 (Mus musculus, UniProt P38532); assay: HSF1 potentiators in luciferase reporter cells, confirmation, cell-based, NIH3T3, luminescence, dose retest (AID 435004); format: functional;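 also: stress induced by proteasome inhibitor MG132 added 30 min after compound; luciferase reporter driven by HSF1 response element in NIH3T3 cells; actives raise luminescence as potentiators of the MG132 stress response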
T5 sequence (P38532 whole entry): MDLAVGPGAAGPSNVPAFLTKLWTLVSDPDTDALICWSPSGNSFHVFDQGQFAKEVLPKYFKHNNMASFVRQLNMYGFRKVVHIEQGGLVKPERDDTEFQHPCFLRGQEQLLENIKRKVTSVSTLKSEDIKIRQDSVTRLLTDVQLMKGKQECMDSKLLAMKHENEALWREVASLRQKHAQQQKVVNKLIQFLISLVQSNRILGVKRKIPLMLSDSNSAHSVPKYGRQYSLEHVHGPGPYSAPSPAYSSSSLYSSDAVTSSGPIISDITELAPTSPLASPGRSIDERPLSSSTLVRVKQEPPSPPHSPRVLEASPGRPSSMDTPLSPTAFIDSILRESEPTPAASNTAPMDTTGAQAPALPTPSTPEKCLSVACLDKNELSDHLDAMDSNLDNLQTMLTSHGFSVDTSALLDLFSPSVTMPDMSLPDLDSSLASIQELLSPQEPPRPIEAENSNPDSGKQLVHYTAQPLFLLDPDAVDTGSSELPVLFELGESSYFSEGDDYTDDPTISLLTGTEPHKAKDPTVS

[16] = target: T4, Kappa-type opioid receptor; assay: KOR agonist analogs, imaging readout, SAR follow-up, image-based (AID 2359); format: functional
[17] = target: T2, Delta-type opioid receptor; assay: DOR antagonists, SAR follow-up, image-based (AID 2357); format: functional
[18] = target: T6, Sphingosine 1-phosphate receptor 4 (Homo sapiens, UniProt O95977); assay: Late-stage fluorescence dose response cell-based assay to identify agonists of the Sphingosine 1-Phosphate Receptor 4 (S1P4): purchased compounds EC50. [Related pubchem assays (depositor defined):AID1509, AID1523, AID1563, AID1686, AID1701, AID1801]; format: functional
T6 sequence (O95977 whole entry): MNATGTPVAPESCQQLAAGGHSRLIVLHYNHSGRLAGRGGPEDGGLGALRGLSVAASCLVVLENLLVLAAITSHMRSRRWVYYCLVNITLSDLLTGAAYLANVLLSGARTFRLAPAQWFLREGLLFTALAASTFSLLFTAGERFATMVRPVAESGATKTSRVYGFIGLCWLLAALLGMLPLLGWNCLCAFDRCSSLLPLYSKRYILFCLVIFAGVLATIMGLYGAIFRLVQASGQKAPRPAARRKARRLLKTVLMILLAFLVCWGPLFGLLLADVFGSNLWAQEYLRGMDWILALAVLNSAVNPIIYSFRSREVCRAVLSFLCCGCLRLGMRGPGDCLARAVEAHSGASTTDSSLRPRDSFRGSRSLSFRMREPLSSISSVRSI

[19] = target: T7, Runt-related transcription factor 1/Core-binding factor subunit beta (Homo sapiens, UniProt Q01196+Q13951); assay: inhibitors of RUNX1 Runt–CBFb-SMMHC binding, primary screen, biochemical, FRET, Cerulean-Runt, Venus-CBFb-SMMHC, uHTS (AID 1434); format: protein assay;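 also: partner is the CBFb-SMMHC leukemia fusion protein rather than wild-type CBFb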
SUMO-activating enzyme [20] = target: T8, SUMO-activating enzyme (Homo sapiens, UniProt Q9UBT2); assay: SUMOylation inhibitor hit validation, confirmation, SUMOylation inhibitor project, biochemical, AlphaScreen (AID 2018); format: functional
[21] = target: T7, Runt-related transcription factor 1/Core-binding factor subunit beta; assay: inhibitors of RUNX1 Runt–CBFb-SMMHC binding, biochemical, TR-FRET (AID 1438); format: protein assay
SUMO-activating enzyme [22] = target: T8, SUMO-activating enzyme; assay: inhibitors of in vitro SUMOylation cascade, primary screen, biochemical, HTRF, uHTS (AID 2006); format: protein-complex assay
[23] = target: T9, Corticotropin-releasing factor receptor 2/Corticotropin-releasing factor-binding protein (Homo sapiens, UniProt P24387+Q13324); assay: activators of CRF receptor 2 with binding protein – uHTS hits, confirmation (AID 602473); format: functional; settings: read-out: EC50_Mean
T9 sequence (Q13324 whole entry): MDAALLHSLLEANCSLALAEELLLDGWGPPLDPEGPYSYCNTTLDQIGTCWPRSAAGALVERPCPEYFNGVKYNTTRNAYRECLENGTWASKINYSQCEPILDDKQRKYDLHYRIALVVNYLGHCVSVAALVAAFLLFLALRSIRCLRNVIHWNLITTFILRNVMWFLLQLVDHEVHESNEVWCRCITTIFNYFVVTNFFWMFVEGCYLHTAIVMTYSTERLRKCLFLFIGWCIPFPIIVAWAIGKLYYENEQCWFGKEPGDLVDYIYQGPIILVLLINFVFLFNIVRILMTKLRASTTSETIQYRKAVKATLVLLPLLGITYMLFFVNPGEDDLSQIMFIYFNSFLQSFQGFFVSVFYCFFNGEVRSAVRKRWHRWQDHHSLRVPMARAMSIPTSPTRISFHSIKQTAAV
T9 sequence (P24387 whole entry): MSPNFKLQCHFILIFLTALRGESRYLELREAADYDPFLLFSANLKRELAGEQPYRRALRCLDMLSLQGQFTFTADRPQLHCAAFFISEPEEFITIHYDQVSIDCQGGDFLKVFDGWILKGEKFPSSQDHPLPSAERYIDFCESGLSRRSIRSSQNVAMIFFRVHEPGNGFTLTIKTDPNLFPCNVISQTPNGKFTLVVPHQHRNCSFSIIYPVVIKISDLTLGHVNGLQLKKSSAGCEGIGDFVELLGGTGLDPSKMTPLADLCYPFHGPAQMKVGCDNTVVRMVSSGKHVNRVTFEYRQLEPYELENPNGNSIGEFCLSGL

- IC50 (SUMO E1/E2): 3.76 µM (active)
- IC50 [1]: 10.2 µM (active)
- IC50 [2]: > 56.8 µM (inactive)
SMILES: O=C(OCC(=O)N1CCc2ccccc2C1)c1cc(-c2ccco2)nc2ccccc12

- EC50 (Troponin, cardiac muscle): > 71.5 µM (inactive)
SMILES: CCOc1cc(N2CCOCC2)c(OCC)cc1NC(=O)CCS(=O)(=O)c1ccc(Cl)cc1

- IC50 [3]: > 32 µM (inactive)
- EC50 (Mu-type opioid receptor [4]): > 32 µM (inactive)
- IC50 [5]: 7.44 µM (active)
- EC50 [6]: > 32 µM (inactive)
- IC50 [7]: 8.06 µM (active)
- EC50 [8]: 1.88 µM
- EC50 [9]: 5.64 µM
- EC50 [10]: 1.92 µM (active)
- EC50 (Mu-type opioid receptor [11]): > 32 µM (inactive)
- EC50 [12]: > 32 µM (inactive)
- IC50 [13]: > 32 µM (inactive)
- IC50 (Mu-type opioid receptor [14]): > 32 µM (inactive)
- EC50 [15]: 36.6 µM (active)
- EC50 [16]: 1.36 µM (active)
- IC50 [17]: > 32 µM (inactive)
SMILES: Brc1ccc(CSc2nnc(-c3ccccn3)n2Cc2ccco2)cc1

- EC50 [18]: > 50 µM (inactive)
SMILES: CCCc1ccc(C(=O)C(C)OC(=O)c2c(C)nn(Cc3ccccc3)c2Cl)cc1 (stereo not given)

SMILES: Cc1ccc(S(=O)(=O)c2cc3c(=O)n4ccccc4nc3n(Cc3ccco3)c2=N)cc1
- IC50 [19]: 5.08 µM (active)
- IC50 (SUMO-activating enzyme [20]): 13.4 µM (active)
- IC50 [21]: 58.6 µM (inactive)
- IC50 (SUMO-activating enzyme [22]): 3.93 µM (active)
- EC50 [23]: > 53 µM (inactive)
